Data set [1] deals with J774 macrophages. The experiment in a line: Resazurin viability assay for J774 macrophages. Format: cell-based, murine. The settings on record: Mus musculus, J774, 48 h, read-out: J774 IC50. Here is the method:
(§1) The influence of AcEP and their analogs (Ac) on the viability of cells was tested in Leishmania tarentolae promastigotes (LtP) and J774 macrophages (Table 2). Based on the changes of viability of the respective cell lines at different compound concentrations, IC50 values were calculated. In Table 2, the IC50 values in both cell lines were compared for the individual compounds. From the ratio of IC50 values in J774 macrophages to IC50 values in LtP, an in vitro selectivity was calculated.
The murine macrophage cell line J774A.1 (ATCC, TIB-67™, Wesel, Germany) was cultivated up to passage 30 in DMEM (high glucose, 3.7 g/L NaHCO3, pH 7.4) with 25,000 IU/L penicillin, 25 mg/L streptomycin, and 10% FCS (heat-inactivated) in 50 mL TubeSpin bioreactors. J774 cells were incubated at 37 °C and 5% CO2 on a roller culture apparatus (5 rpm) in a Heraeus Cytoperm 8080 incubator (Thermo Electron Corp., Vienna, Austria). To determine the cell count, the cell suspension was re-suspended and diluted 1:2 with phosphate-buffered saline (PBS): 137 mM NaCl, 1.4 mM KH2PO4, 4.3 mM Na2HPO4, and 2.7 mM KCl, pH 7.4. After fixation of the cells by mixing the cell suspension 1:1 with a formaldehyde solution (2%, v/v), aliquots of the resulting suspension were transferred into a standard Neubauer chamber (VWR, Austria) and counted manually using a light microscope (Motic BA310, Vienna, Austria) at a magnification of 40 times. J774 cells were passaged twice a week in a ratio of 1:10.
DMEM containing 25,000 U/L penicillin, 25 mg/L streptomycin, 10% FCS, and 1 × 10^5 J774/mL was prepared. This mixture (200 µL) was distributed in cell culture-treated 96-well plates, except the control wells which contained only DMEM. The cells were incubated for 24 h at 37 °C and 5% CO2 to allow attachment. Afterwards the medium and non-adherent cells were removed by washing with PBS, and then, 200 µL DMEM was added to attached cells. Compounds dissolved in DMSO were added in starting concentrations of 25 µM (Pen) or 200 µM (AcEP/Ac), and then, serial dilutions were carried out resulting in the same concentration steps as listed for LtP. For each compound concentration triplicates on each plate were performed. […], 50 µL of resazurin solution (final concentration 20 µM) was added, and after 4 h of incubation, the fluorescence was measured at 560 nm excitation and 590 nm emission using a plate reader (Perkin Elmer EnSpire, Rodgau, Germany). All tests were repeated at least on four different weeks of cultivation.
(§2) Calculations were carried out using Microsoft Excel 2016 (Microsoft). The graphs were created using Origin 6.1 (OriginLab Corporation, Northampton, MA, USA). For all groups of experimental data, mean and standard deviation (SD) were calculated. Statistically significant differences between groups of sample data were identified by unpaired two-tailed Student’s t-test. Differences on the level of p < 0.05 were considered significant. The number of replicates is indicated at the respective figures/tables. The half-maximal inhibitory concentrations (IC50) were determined from non-linear concentration-response curves using a four-parameter logistic model and expressed as the mean ± SD.
(Resazurin is reduced to fluorescent resorufin, in cell work by metabolically active cells.)

Data set [2] has as its system Leishmania tarentolae promastigotes (LtP). The experiment in a line: Resazurin viability assay for LtP. The format is cell-based. The conditions noted are these: for IC50: Leishmania tarentolae, read-out: LtP IC50; for Selectivity IC50,J774/IC50,LtP: ratio of IC50 in J774 macrophages to IC50 in LtP; for IC50,non-EP/IC50,EP: ratio of IC50 of non-EP in LtP versus IC50 of respective EP. Here is the method:
as §1
LtP (strain P10 from Jena Bioscience, Jena, Germany) were cultivated according to manufacturer instructions up to passage 50 in brain heart infusion medium (37 g/L, pH 7.4) and supplemented with 5 mg/L hemin and 25,000 IU/L penicillin and 25 mg/L streptomycin in 50 mL TubeSpin bioreactors (TPP, Trasadingen. Switzerland). LtP were grown at 27 °C in an incubator (Ehret, Emmendingen, Germany) and agitated at a frequency of 0.05 s^−1. […] For experiments, LtP were used one day after passage. The cell number was calculated by measuring the optical density (OD) of the culture at 600 nm with a U-1100 photometer (Hitachi Ltd., Tokyo, Japan) and applying the formula × 10^6 cells/mL = OD600nm × 0.969 × 124 × dilution factor [53].
Assay medium of YEM (20.7 g/L yeast extract powder, 1.2 g/L K2HPO4, 0.2 g/L KH2PO4, 2.9 g/L glucose, pH 7.4) and PBS (1:1, v/v), 25,000 U/L penicillin, 25 mg/L streptomycin, and 7.7 µM hemin was prepared. Aliquots of 200 µL of this medium and 2 × 10^6 LtP/mL (where required) were distributed in non-treated cell culture 96-well plates. Compounds (dissolved in DMSO) were added with starting concentrations of 25 µM (Pen) or 200 µM (AcEP/Ac), and then, serial dilutions were carried out resulting in a set of concentrations (25, 5, 1, 0.2, 0.04, and 0.008 µM) or (200, 40, 8, 1.6, 0.32, and 0.064 µM). For each compound concentration, at least triplicates on each plate were performed. After incubation of the plates at 27 °C for 48 h, 50 µL of resazurin solution (final concentration in wells 20 µM) was added to each well and after 4 h of incubation, the fluorescence was measured at 560 nm excitation and 590 nm emission using a plate reader (Perkin Elmer EnSpire, Rodgau, Germany) (adapted from). Combination assays for viability in the presence of PIH and NAC were performed the same way. […] All tests were repeated at least on four different weeks of cultivation.
as §2

Data set [3] in a line: UV detection of cycloreversion (thermal decomposition) of AcEP. Format: physicochemical. The conditions noted are these: 40 µM AcEP in EtOH at 70 °C over up to 23 h, UV spectra. Here is the method: To determine EP decomposition, we recorded at first the UV spectra of the parent Ac compound and then observed the spectral changes of the corresponding EP during incubation in EtOH (Figure 7). […] Spectral changes in these compounds rather indicate other decomposition pathways.
A sample of the corresponding Ac in 1.5 mL EtOH (final concentrations 2, 8, or 10 µM) was transferred into a quartz cuvette and measured by an UV–VIS spectrometer (U3300, Hitachi, Tokyo, Japan) at 70 °C. Afterwards, an aliquot of the corresponding AcEP dissolved in EtOH (final concentration 40 µM) was pipetted into a cuvette, and its UV spectra were measured at 70 °C in a time interval of 1 h over a period of 23 h. After measurements, the re-appearance of the Ac absorption pattern was verified.

[4] abbreviates: resazurin viability, endpoint 48 h, 10^5 J774 cells/mL, mean ± SD of 4–8 experiments.
[5] abbreviates: resazurin viability, endpoint 48 h, 2 × 10^6 LtP/mL, mean ± SD of 4–8 experiments.

Each structure is given as a SMILES string. Read-outs that look alike come from different tables or passages of the source. A value given as a limit tells only on which side of the number the result lay.

As usually defined, the IC50 is the concentration that inhibits the measured activity by half.

With `C[n+]1ccc(C23OOC(c4cc[n+](C)cc4)(c4ccccc42)c2ccccc23)cc1` [Compound 1062MeAcEP], the IC50 in data set [1] (setting [4]) is more than 200 µM; in data set [2] (setting [5]), 62 ± 34.2 µM. Also, the “Selectivity IC50,J774/IC50,LtP” value in data set [2] is given as more than 3.2.
Regarding `c1ccc(C23OOC(c4ccccc4)(c4ccccc42)c2ccccc23)cc1` [DPAcEP], the IC50 in data set [1] (setting [4]) amounted to 197 ± 35 µM. Besides, the IC50 in data set [2] (setting [5]) was found to be 9.67 ± 2.15 µM. Besides, in data set [2], the “Selectivity IC50,J774/IC50,LtP” value came out at 20 and the “IC50,non-EP/IC50,EP” value is on record as 20.3. Moreover, the “Activity against LtP, in words” value in data set [2] (viability assay) was “rather active”. Also, the “Cycloreversion to the parent Ac compound (thermal decomposition)” value (“Cycloreversion to the parent Ac compound” for short) in data set [3] is “clear reformation of the parent Ac compound over time”.
`CC(C)(C)c1ccc2c(-c3cccnc3)c3ccccc3c(-c3cccnc3)c2c1` [mPyBuAc]: the results for the concentration for half-maximal inhibition (IC50) in data set [1] and in data set [2] (48 h) were 74.2 ± 45.9 µM and 0.54 ± 0.09 µM, respectively. Also, in data set [2], the “Selectivity IC50,J774/IC50,LtP” value is 139.
In the case of `c1ccc(C23OOC(c4ccccn4)(c4ccccc42)c2ccccc23)nc1` [oPyAcEP], in data set [1] (setting [4]), the IC50 turned out to be 2.24 ± 0.08 µM. Moreover, in data set [2] (setting [5]), the IC50 turned out to be 1.84 ± 0.13 µM. Also, in data set [2], the “Selectivity IC50,J774/IC50,LtP” value was 1.2 and the “IC50,non-EP/IC50,EP” value is on record as 18.7. For the same compound, the “Cycloreversion to the parent Ac compound” value in data set [3] was “did not undergo conversion to the parent Ac compound”.
In the case of `COc1ccccc1C12OOC(c3ccccc3OC)(c3ccccc31)c1ccccc12` [oOMeAcEP], the IC50 in data set [1] (setting [4]) is more than 200 µM. Further, the IC50 in data set [2] (setting [5]) stood at 40.7 ± 12.3 µM. Further, in data set [2], the “Selectivity IC50,J774/IC50,LtP” value was more than 4.9 and the “IC50,non-EP/IC50,EP” value is 1.79.
For `CC(C)(C)c1ccc2c(c1)C1(c3cccnc3)OOC2(c2cccnc2)c2ccccc21` (centres unmarked) [mPyBuAcEP], the values for the 50% inhibitory concentration (IC50) in data set [1] (setting [4]) and in data set [2] (setting [5]) were 24.6 ± 7.3 µM and 0.7 ± 0.31 µM, respectively. In addition, the “Selectivity IC50,J774/IC50,LtP” value in data set [2] was determined as 35. In addition, the “IC50,non-EP/IC50,EP” value in data set [2] is 0.77. For the same compound, the “Cycloreversion to the parent Ac compound” value in data set [3] is given as “clear reformation of the parent Ac compound over time”.

The values are drawn from publication PMC9612231, “Antileishmanial Anthracene Endoperoxides: Efficacy In Vitro, Mechanisms and Structure-Activity Relationships” (Molecules, 2022).
